Like-named read-outs stand apart in the source and are kept apart here.
Columns and labels:
H322 cells = assay: Cell viability, H322 lung cancer cells; format: cell-based, human; conditions: Homo sapiens, NCI-H322; H322, Lung; read-out: IC50 (−LogM) (converted)
SR = assay: NCI in-vitro testing, SR (Leukemia); format: cell-based; conditions: for GI50: Homo sapiens
H460 cells = assay: cells; conditions: Homo sapiens
CCRF-CEM = assay: NCI in-vitro testing, CCRF-CEM (Leukemia)
HT29 = assay: NCI in-vitro testing, HT29 (Colon Cancer)
RPMI-8226 = assay: NCI in-vitro testing, RPMI-8226 (Leukemia)
SW-620 = assay: NCI in-vitro testing, SW-620 (Colon Cancer)
T-47D = assay: NCI in-vitro testing, T-47D (Breast Cancer)
HCT-116 = assay: NCI in-vitro testing, HCT-116 (Colon Cancer)
RXF 393 = assay: NCI in-vitro testing, RXF 393 (Renal Cancer)
COLO 205 = assay: NCI in-vitro testing, COLO 205 (Colon Cancer)
HCC-2998 = assay: NCI in-vitro testing, HCC-2998 (Colon Cancer)
DU-145 = assay: NCI in-vitro testing, DU-145 (Prostate Cancer)
EKVX = assay: NCI in-vitro testing, EKVX (Non-Small Cell Lung Cancer)
NCI-H522 = assay: NCI in-vitro testing, NCI-H522 (Non-Small Cell Lung Cancer)
[1] = Homo sapiens, read-out: Log10 GI50 (converted)

OCc1cn(Cc2ccc(Cl)cc2)c2ccccc12 [Oncrasin K060, 1H-Indole-3-methanol, 1-[(4-chlorophenyl)methyl]-]
IC50 (H322 cells): 31600 nM | TGI (SR): 1.26E−8 Molar | GI50 (SR; Leukemia, NCI Mean Graphs, read-out: Log10 GI50 (converted)): < 10 nM | GI50 (SR; read-out: GI50): < 1000 nM | Percent Growth (SR; Log10 Concentration −4.0 Molar): −71% | Percent Growth (SR; Log10 Concentration −5.0 Molar): −18% | Percent Growth (SR; Log10 Concentration −6.0 Molar): −71% | Percent Growth (SR; Log10 Concentration −7.0 Molar): −26% | Percent Growth (SR; Log10 Concentration −8.0 Molar): 43% | IC50 (H460 cells; NCI-H460, read-out: IC50 (−LogM), H460, Lung (converted)): 15.8 nM | IC50 (H460 cells; NCI-H460, read-out: IC50 in H460 cells, Table 1): 15.8 nM | TGI (CCRF-CEM): 4.31E−6 Molar | GI50 (CCRF-CEM; Homo sapiens): 1740 nM | CC50 (CCRF-CEM; Homo sapiens, read-out: LC50): 14800 nM | GI50 (CCRF-CEM; [1]): 1740 nM | Percent Growth (CCRF-CEM; Log10 Concentration −4.0 Molar): −67% | Percent Growth (CCRF-CEM; Log10 Concentration −5.0 Molar): −47% | Percent Growth (CCRF-CEM; Log10 Concentration −6.0 Molar): 81% | Percent Growth (CCRF-CEM; Log10 Concentration −7.0 Molar): 97% | Percent Growth (CCRF-CEM; Log10 Concentration −8.0 Molar): 100% | TGI (HT29; HT20): 2.01E−6 Molar | Percent Growth (HT29; HT20, Log10 Concentration −4.0 (Molar)): −66% | Percent Growth (HT29; HT20, Log10 Concentration −5.0 (Molar)): 29% | Percent Growth (HT29; HT20, Log10 Concentration −6.0 (Molar)): 68% | Percent Growth (HT29; HT20, Log10 Concentration −7.0 (Molar)): 79% | Percent Growth (HT29; HT20, Log10 Concentration −8.0 (Molar)): 103% | GI50 (HT29; Homo sapiens): 1830 nM | GI50 (HT29; Homo sapiens, HT-29, read-out: Log10 GI50 (converted)): 1820 nM | CC50 (HT29; Homo sapiens, read-out: LC50): 67600 nM | GI50 (RPMI-8226; Homo sapiens, RPMI-8226): 372 nM | CC50 (RPMI-8226; Homo sapiens, RPMI-8226, read-out: LC50): > 100000 nM | GI50 (RPMI-8226; Homo sapiens, RPMI-8226, read-out: Log10 GI50 (converted)): 372 nM | TGI (RPMI-8226; RPMI-8226): 3.19E−6 Molar | Percent Growth (RPMI-8226; RPMI-8226, Log10 Concentration −4.0 Molar): −35% | Percent Growth (RPMI-8226; RPMI-8226, Log10 Concentration −5.0 Molar): −23% | Percent Growth (RPMI-8226; RPMI-8226, Log10 Concentration −6.0 Molar): 24% | Percent Growth (RPMI-8226; RPMI-8226, Log10 Concentration −7.0 Molar): 85% | Percent Growth (RPMI-8226; RPMI-8226, Log10 Concentration −8.0 Molar): 119% | GI50 (SW-620; Homo sapiens, SW-620): 571 nM | CC50 (SW-620; Homo sapiens, SW-620, read-out: LC50): > 100000 nM | GI50 (SW-620; Homo sapiens, SW-620, read-out: Log10 GI50 (converted)): 575 nM | TGI (SW-620; SW-620): 1.80E−5 Molar | Percent Growth (SW-620; SW-620, Log10 Concentration −4.0 Molar): −46% | Percent Growth (SW-620; SW-620, Log10 Concentration −5.0 Molar): 16% | Percent Growth (SW-620; SW-620, Log10 Concentration −6.0 Molar): 39% | Percent Growth (SW-620; SW-620, Log10 Concentration −7.0 Molar): 83% | Percent Growth (SW-620; SW-620, Log10 Concentration −8.0 Molar): 94% | GI50 (T-47D; Homo sapiens, T47D): 26.7 nM | CC50 (T-47D; Homo sapiens, T47D, read-out: LC50): > 100000 nM | GI50 (T-47D; Homo sapiens, T47D, read-out: Log10 GI50 (converted)): 26.9 nM | TGI (T-47D; T-47D): 4.23E−7 Molar | Percent Growth (T-47D; T-47D, Log10 Concentration −4.0 Molar): −14% | Percent Growth (T-47D; T-47D, Log10 Concentration −5.0 Molar): −16% | Percent Growth (T-47D; T-47D, Log10 Concentration −6.0 Molar): −12% | Percent Growth (T-47D; T-47D, Log10 Concentration −7.0 Molar): 20% | Percent Growth (T-47D; T-47D, Log10 Concentration −8.0 Molar): 73% | TGI (HCT-116; HCT-116): 1.06E−5 Molar | Percent Growth (HCT-116; HCT-116, Log10 Concentration −4.0 Molar): −64% | Percent Growth (HCT-116; HCT-116, Log10 Concentration −5.0 Molar): 2% | Percent Growth (HCT-116; HCT-116, Log10 Concentration −6.0 Molar): 10% | Percent Growth (HCT-116; HCT-116, Log10 Concentration −7.0 Molar): 30% | Percent Growth (HCT-116; HCT-116, Log10 Concentration −8.0 Molar): 68% | GI50 (HCT-116; Homo sapiens, HCT-116): 20.4 nM | CC50 (HCT-116; Homo sapiens, HCT-116, read-out: LC50): 6060 nM | GI50 (HCT-116; Homo sapiens, HCT-116, read-out: Log10 GI50 (converted)): 29.5 nM | GI50 (RXF 393; Homo sapiens, RXF 393): < 10 nM | CC50 (RXF 393; Homo sapiens, RXF 393, read-out: LC50): 23200 nM | GI50 (RXF 393; Homo sapiens, RXF 393, read-out: Log10 GI50 (converted)): < 10 nM | TGI (RXF 393; RXF 393): 2.44E−7 Molar | Percent Growth (RXF 393; RXF 393, Log10 Concentration −4.0 Molar): −85% | Percent Growth (RXF 393; RXF 393, Log10 Concentration −5.0 Molar): −30% | Percent Growth (RXF 393; RXF 393, Log10 Concentration −6.0 Molar): −12% | Percent Growth (RXF 393; RXF 393, Log10 Concentration −7.0 Molar): 7% | Percent Growth (RXF 393; RXF 393, Log10 Concentration −8.0 Molar): 31% | TGI (COLO 205; COLO 205): 1.58E−5 Molar | Percent Growth (COLO 205; COLO 205, Log10 Concentration −4.0 Molar): −72% | Percent Growth (COLO 205; COLO 205, Log10 Concentration −5.0 Molar): 18% | Percent Growth (COLO 205; COLO 205, Log10 Concentration −6.0 Molar): 61% | Percent Growth (COLO 205; COLO 205, Log10 Concentration −7.0 Molar): 93% | Percent Growth (COLO 205; COLO 205, Log10 Concentration −8.0 Molar): 98% | GI50 (COLO 205; Homo sapiens, COLO 205): 1050 nM | CC50 (COLO 205; Homo sapiens, COLO 205, read-out: LC50): 56900 nM | GI50 (COLO 205; Homo sapiens, COLO 205, read-out: Log10 GI50 (converted)): 1050 nM | TGI (HCC-2998; HCC-2998): 2.04E−5 Molar | Percent Growth (HCC-2998; HCC-2998, Log10 Concentration −4.0 Molar): −97% | Percent Growth (HCC-2998; HCC-2998, Log10 Concentration −5.0 Molar): 43% | Percent Growth (HCC-2998; HCC-2998, Log10 Concentration −6.0 Molar): 62% | Percent Growth (HCC-2998; HCC-2998, Log10 Concentration −7.0 Molar): 86% | Percent Growth (HCC-2998; HCC-2998, Log10 Concentration −8.0 Molar): 95% | GI50 (HCC-2998; Homo sapiens, HCC 2998): 4330 nM | CC50 (HCC-2998; Homo sapiens, HCC 2998, read-out: LC50): 45200 nM | GI50 (HCC-2998; Homo sapiens, HCC 2998, read-out: Log10 GI50 (converted)): 4370 nM | TGI (DU-145; DU-145): 2.78E−5 Molar | Percent Growth (DU-145; DU-145, Log10 Concentration −4.0 Molar): −53% | Percent Growth (DU-145; DU-145, Log10 Concentration −5.0 Molar): 42% | Percent Growth (DU-145; DU-145, Log10 Concentration −6.0 Molar): 96% | Percent Growth (DU-145; DU-145, Log10 Concentration −7.0 Molar): 105% | Percent Growth (DU-145; DU-145, Log10 Concentration −8.0 Molar): 108% | GI50 (DU-145; Homo sapiens, DU-145): 7250 nM | CC50 (DU-145; Homo sapiens, DU-145, read-out: LC50): 93300 nM | GI50 (DU-145; Homo sapiens, DU-145, read-out: Log10 GI50 (converted)): 7240 nM | TGI (EKVX): 6.47E−5 Molar | GI50 (EKVX; Homo sapiens): 24000 nM | CC50 (EKVX; Homo sapiens, read-out: LC50): > 100000 nM | GI50 (EKVX; [1]): 24000 nM | Percent Growth (EKVX; Log10 Concentration −4.0 Molar): −22% | Percent Growth (EKVX; Log10 Concentration −5.0 Molar): 94% | Percent Growth (EKVX; Log10 Concentration −6.0 Molar): 107% | Percent Growth (EKVX; Log10 Concentration −7.0 Molar): 105% | Percent Growth (EKVX; Log10 Concentration −8.0 Molar): 103% | TGI (NCI-H522): 1.24E−5 Molar | GI50 (NCI-H522; Homo sapiens, NCI-H522): 2410 nM | CC50 (NCI-H522; Homo sapiens, NCI-H522, read-out: LC50): 51000 nM | GI50 (NCI-H522; Homo sapiens, NCI-H522, read-out: Log10 GI50 (converted)): 2400 nM | Percent Growth (NCI-H522; Log10 Concentration −4.0 Molar): −74% | Percent Growth (NCI-H522; Log10 Concentration −5.0 Molar): 7% | Percent Growth (NCI-H522; Log10 Concentration −6.0 Molar): 76% | Percent Growth (NCI-H522; Log10 Concentration −7.0 Molar): 82% | Percent Growth (NCI-H522; Log10 Concentration −8.0 Molar): 91%

From patent US8883841B2, “Oncogenic ras-specific cytotoxic compound and methods of use thereof” (The Board of Regents of the University of Texas System, priority 2005, dated 2014)
